Test results as given in article PMC7822874, “Chemoprotective antimalarials identified through quantitative high-throughput screening of Plasmodium blood and liver stage parasites” (Scientific Reports, 2021).
Where two headings read alike, the source gives them in different places.

Assays:
[1] = tested on: P. falciparum Dd2 (clone B2) asexual blood stage parasites; assay: P. falciparum Dd2 asexual blood stage SYBR Green-I 72 h proliferation assay (qHTS); type: cell-based, Plasmodium falciparum; conditions: averaged P. falciparum asexual blood stage potency, log10 of AC50 in M
[2] = tested on: P. berghei-ANKA-GFP-LucCON liver stage parasites in HepG2-A16-CD81EGFP cells; assay: P. berghei liver stage Pb-Luc assay, Method 1 (UCSD, 1536-well); type: cell-based, Plasmodium berghei; conditions: P. berghei liver stage, averaged response (percent); for Average P. berghei 1 µM response (%): the header list (r8) defines it as the 1 µM dose
HepG2-A16-CD81EGFP cells = conditions: averaged response (percent)
[3] = HepG2, the header list (r10) describes it as the 1 µM dose

| Compound | Pf ABS Log AC50 (M) [1] [M] | Average P. berghei 3 µM response( %) [2] [%] | Average P. berghei 1 µM response (%) [2] [%] | Average HepG2 3 µM response( %) (HepG2-A16-CD81EGFP cells; HepG2, 3 µM dose) [%] | Average HepG2 3 µM response( %) (HepG2-A16-CD81EGFP cells; [3]) [%] |
| --- | --- | --- | --- | --- | --- |
| COc1ccc(-c2c3c(nc4sc(C(=O)Nc5ccc(Cl)cc5)c(N)c24)CC(C)(C)CC3=O)cc1 [NCGC00100738] | -6.425 | 90 | 111 | 109 | 104 |
| COc1cc(Br)c(C(C)NC(=O)c2cccc(Br)c2)cc1OC (centres unmarked) [MLS000325399] | -5.887 | 70 | 107 | 93 | 98 |
| Oc1cc2c(cc1CN1CCN(c3ccccc3)CC1)CCC2 [MLS000058156] | -5.587 | 107 | 92 | 101 | 102 |
| CCCN(CCC)CCNC(=O)c1cc2c(-c3ccc(Cl)cc3)nn(C)c2s1 [NCGC00108997] | -6.212 | 49 | 57 | 98 | 102 |
| Cc1nn2c(c1-c1ccccc1-c1ccccc1)N(Cc1ccc(O)cc1)CCC2 [NCGC00420512] | -6.314 | 24 | 80 | 111 | 98 |
| Br.CCOC(=O)c1c(CSC(=N)N)n(-c2ccc(Br)cc2)c2cc(Br)c(OC(C)=O)cc12 [MLS000595146] | -5.712 | 73 | 88 | 102 | 101 |
| COc1cc(O)c(C(CCN2CCCC(C)C2)c2cc(OC)c(OC)c(OC)c2)c(OC)c1 (centres unmarked) [MLS000879467] | -5.687 | 71 | – | 86 | 89 |
| OC(CNCCNc1ncccc1C(F)(F)F)Cn1ccc2ccccc21 (centres unmarked) [MLS000833573] | -5.662 | 109 | 113 | 95 | 101 |
| CN(CC(=O)Nc1cccc(F)c1)C(=O)c1ccc(-c2cccc(C(F)(F)F)c2)o1 [MLS001139679] | -6.362 | 89 | 141 | 100 | 103 |
| CCN1CCN(Cc2ccc(NC(=O)c3cc(NC(=O)C(=O)c4c[nH]c5ccccc45)cc(OC)c3)cc2C(F)(F)F)CC1.O=C(O)C(F)(F)F [MLS003105970] | -6.175 | 54 | 132 | 106 | 106 |
| OC(CN1CCN(c2ccccn2)CC1)Cn1c2ccc(Cl)cc2c2cc(Cl)ccc21 (centres unmarked) [MLS000529159] | -5.612 | 77 | 108 | 102 | 102 |
| Cc1ccccc1NC(=O)Nc1ccc2nc(N3CCN(C)CC3)cc(C)c2c1 [NCGC00126513] | -5.825 | 104 | 110 | 106 | 104 |
| CCCCn1c2c(c(=N)c3c1CCC3)CCC2 [MLS000080126] | -5.587 | 4 | 41 | 80 | 110 |
| COc1ccc(N2CCN(c3cc(C4CC(N)C4)nc(N)n3)CC2(C)C)cc1 (centres unmarked) [NCGC00422579] | -5.525 | 82 | 91 | 100 | 102 |
| CC(C)OCCCNc1sc([S+](=O)([O-])c2ccccc2)nc1[S+](=O)([O-])c1ccc(Cl)cc1 [NCGC00116822] | -6.575 | 76 | 75 | 94 | 93 |
| N=c1c2c(n(Cc3ccccc3)c3c1CCC3)CCC2 [MLS000080128] | -5.712 | 16 | 14 | 74 | 94 |
| Cc1ccc(O)c([C@H](CCN(C(C)C)C(C)C)c2ccccc2)c1 [NCGC00159519] | -5.437 | 83 | 97 | 104 | 100 |
| COc1ccc(-c2nc3sc(CCNC(=O)c4ccc(C(C)(C)C)cc4)c(C)n3n2)cc1 [NCGC00137079] | -5.675 | 84 | 132 | 98 | 98 |
| CCOC(=O)N1CCc2c(sc3nc4n(c(=O)c23)N=C(c2ccc(OC)cc2)CS4)C1 [MLS000859689] | -5.012 | 87 | 113 | 98 | 100 |
| COc1ccc(C(CCN2CCCCC2)c2c(O)cc(OC)cc2OC)cc1 (centres unmarked) [MLS000879486] | -5.962 | 88 | 105 | 88 | 92 |
| CCCCCC(=O)O[C@]1(C(C)=O)CC[C@H]2[C@@H]3CCC4=CC(=O)CC[C@]4(C)[C@H]3CC[C@@]21C [MLS000028438] | -5.700 | 29 | 85 | 104 | 104 |
| CCOC(=O)C1=C(C)N=c2s/c(=C/c3ccc(OCC(=O)O)cc3)c(=O)n2C1c1cc(OC)c(OC)c(OC)c1 (centres unmarked) [MLS001178475] | -5.737 | 74 | 98 | 99 | 99 |
| Cc1ccc2[nH]c(C(=O)Nc3ccc(F)cc3)cc2c1 [MLS001183414] | -4.837 | 91 | 92 | 100 | 100 |
| C=C(C)COc1ccc(-c2ncnc(C(F)(F)F)c2-c2ccc(OC)cc2)c(O)c1 [MLS001216205] | -5.462 | 105 | 107 | 103 | 92 |
| Cc1nn(-c2nnc(NCc3ccccc3)nn2)c(C)c1Br [MLS000704225] | -6.187 | 57 | 106 | 93 | 102 |
| Cc1cc(Oc2c(C(F)(F)F)oc3c(CN4CCC(C)CC4)c(O)ccc3c2=O)cc(C)c1Cl [NCGC00101140] | -6.125 | 71 | 85 | 111 | 110 |
| O=C(O)c1ccc(-c2nc3cnccc3[nH]2)cc1 [NCGC00375713] | -5.264 | 94 | 106 | 104 | 105 |
